According to the supplement of paper PMC8967900:

Legend:
Assay in all cases: selective drug sensitivity score (sDSS, relative to normal bone marrow) (sDSS (score)); higher = more potent and effective on the cell line relative to normal bone marrow cells
Settings in all cases: 72 h
[1] = test system: MOLT-4
[2] = test system: COG-LL-402h
[3] = test system: P12-ICHIKAWA
[4] = test system: RPMI-8402
[5] = test system: KASUMI-9
[6] = test system: 380
[7] = test system: NALM-16
[8] = test system: NALL-1
[9] = test system: COG-LL-319h
[10] = test system: COG-LL-355h
[11] = test system: HPB-ALL
[12] = test system: MN-60
[13] = test system: KASUMI-10
[14] = test system: REH
[15] = test system: MHH-CALL-3
[16] = test system: TMD5
[17] = test system: KOPN-8
[18] = test system: LC4-1
[19] = test system: DND-41
[20] = test system: MOLT-14
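Also: ALL cell lines in 384-well plates, five doses spanning 10,000-fold, each plate scaled between vehicle and 100 µmol/L benzalkonium chloride controls, sDSS an adapted area-under-curve metric.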

Structure (SMILES) | selective drug sensitivity score [1] | selective drug sensitivity score [2] | selective drug sensitivity score [3] | selective drug sensitivity score [4] | selective drug sensitivity score [5] | selective drug sensitivity score [6] | selective drug sensitivity score [7] | selective drug sensitivity score [8] | selective drug sensitivity score [9] | selective drug sensitivity score [10] | selective drug sensitivity score [11] | selective drug sensitivity score [12] | selective drug sensitivity score [13] | selective drug sensitivity score [14] | selective drug sensitivity score [15] | selective drug sensitivity score [16] | selective drug sensitivity score [17] | selective drug sensitivity score [18] | selective drug sensitivity score [19] | selective drug sensitivity score [20]
CN(C)Cc1ccc(S(=O)(=O)n2ccc(/C=C/C(=O)NO)c2)cc1 [Resminostat] (top concentration 10000 nM) | 1.24 | 10.2 | 7.34 | 7.24 | 10.2 | 7.44 | 0.24 | -4.46 | 12.2 | 6.04 | 6.24 | 2.34 | 5.94 | 2.04 | 11.7 | 0.34 | 10.1 | 4.54 | 1.74 | 9.74
COc1ccc(C[C@H](NC(=O)[C@H](C)NC(=O)CN2CCOCC2)C(=O)N[C@@H](Cc2ccccc2)C(=O)[C@@]2(C)CO2)cc1 [ONX-0914] (top concentration 10000 nM) | 1.9 | 2 | 7.3 | -3.1 | -4.1 | 5.5 | -2 | 9.8 | -0.8 | 8.7 | -2.4 | -2.9 | 0.9 | -1.6 | 7.2 | 0 | 1.5 | -1.2 | 11.7 | 0.5
Cc1ccc(C(=O)Nc2ccc(CN3CCN(C)CC3)c(C(F)(F)F)c2)cc1C#Cc1cnc2cccnn12 [Ponatinib] (top concentration 1000 nM) | 4.32 | 10.2 | 1.22 | 2.72 | 5.42 | 9.52 | -0.08 | -3.08 | 10.3 | 5.52 | -2.18 | -0.58 | 16 | 2.62 | 10.7 | 19 | 27.1 | 0.32 | 1.42 | 7.42
Cc1nn(C)c(COc2ccc(N3CCN(S(=O)(=O)N(C)C)CC3)cc2)c1-c1cccc2c(CCCOc3cccc4ccccc34)c(C(=O)O)n(CCN3CCOCC3)c12 (top concentration 50000 nM) | 6.56 | 4.26 | 6.76 | 4.86 | 5.66 | 0.86 | 4.36 | 5.46 | 5.26 | 15.3 | 2.16 | 3.16 | 3.86 | 8.46 | 2.56 | 4.26 | 10.1 | 6.56 | 4.56 | 6.96
Cc1c(-c2ccc(N3CCc4cccc(C(=O)Nc5nc6ccccc6s5)c4C3)nc2C(=O)O)cnn1CC12CC3CC(CC(C3)C1)C2 (top concentration 1000 nM) | 23.6 | 16.5 | 27.7 | 13 | -2.26 | 3.94 | -2.26 | 0.14 | 19.4 | 18.2 | 25.5 | -2.26 | 3.04 | -2.26 | 9.54 | -2.26 | 0.74 | -2.26 | 19.7 | 6.34
COc1cc2ncnc(Oc3cccc(NC(=O)Nc4cc(C(C)(C)C(F)(F)F)on4)c3)c2cc1OC (top concentration 10000 nM) | 0 | 0.3 | 5.9 | 4.7 | 7.5 | 0 | 0 | 0.3 | 12.3 | 4.9 | 0 | 0 | 10.8 | 5 | 0 | 15.7 | 16.7 | 1.1 | 0 | 0.8
Cc1ccc(Nc2nccc(N(C)c3ccc4c(C)n(C)nc4c3)n2)cc1S(N)(=O)=O [Pazopanib] (top concentration 10000 nM) | -1.06 | -1.26 | 1.04 | 2.44 | 3.64 | -0.86 | -1.26 | -1.26 | 0.74 | -1.26 | 0.64 | -0.86 | 2.24 | 4.14 | -1.26 | 4.54 | 5.64 | 5.24 | 0.04 | -1.26
Cc1cccc(CC(=O)N2CCc3c2ccc(-c2cn(C)c4ncnc(N)c24)c3F)n1 (top concentration 2500 nM) | 3.22 | -0.68 | 2.82 | 5.22 | 2.92 | -0.68 | -0.68 | -0.68 | 0.52 | -0.28 | -0.68 | 1.82 | -0.68 | 9.62 | -0.68 | -0.68 | -0.68 | 4.72 | -0.68 | 1.22
CCOC(=O)CCNc1cc(N2CCc3ccccc3CC2)nc(-c2ccccn2)n1 [GSK-J4] (top concentration 100000 nM) | -7.98 | -7.88 | -7.68 | -8.18 | -7.88 | -9.38 | -8.38 | -9.18 | 3.22 | -4.78 | 1.62 | -6.58 | -11.8 | -7.88 | -13.2 | -9.38 | -8.88 | -9.58 | -6.88 | -3.98
